Experimental data: patent publication US5464848A, “1,2,4-oxadiazolyl-phenoxyalkylisoxazoles and their use as antiviral agents” (Sterling Winthrop Inc., priority 1993, dated 1995)
≈ marks a conversion by molar mass, not a printed value.

Experiments:
HRV-86 = test: Inhibition of virus-induced CPE in HeLa cells (MIC), HRV-86; format: cell-based; settings: Human rhinovirus sp., HRV86, 72 h, 3 day incubation at 33° C.
Description: (§1) They are useful in inhibiting virus replication in vitro and are primarily active against picornaviruses, including enteroviruses, echovirus and coxsackie virus, especially rhinoviruses. […] The test procedure used was as follows: The MIC values were determined by an automated tissue culture infectious dose 50% (TCID-50) assay. HeLa cells in monoloyers in 96-well cluster plates were infected with a dilution of virus which had been shown empirically to produce 80% to 100% cytopathic effect (CPE) in 3 days in the absence of drug. The compound to be tested was serially diluted through 10, 2-fold cycles and added to the infected cells. After a 3 day incubation at 33° C. and 2.5% carbon dioxide, the cells were fixed with a 5% solution of glutaraldehyde followed by staining with a 0.25% solution of crystal violet in water. The plates were then rinsed, dried, and the amount of stain remaining in the well (a measure of intact cells) was quantitated with an optical density reader. The MIC was determined to be the concentration of compound which protected 50% of the cells from virus-induced CPE relative to an untreated virus control. […]

HRV-14 = test: Inhibition of virus-induced CPE in HeLa cells (MIC), HRV-14; format: cell-based, human rhinovirus; settings: Rhinovirus B, HRV14, 72 h, 3 day incubation at 33° C.
Description: as §1

HRV-67 = test: Inhibition of virus-induced CPE in HeLa cells (MIC), HRV-67; format: cell-based; settings: Human rhinovirus sp., HRV67, 72 h, 3 day incubation at 33° C.
Description: as §1

coxsackievirus A21 = test: Oral efficacy against coxsackievirus A21 in weanling ICR mice; format: in vivo; settings: for % Alive at Day 17: oral
HRV-22 = test: Inhibition of virus-induced CPE in HeLa cells (MIC), HRV-22; format: cell-based; settings: Human rhinovirus sp., HRV22, 72 h, 3 day incubation at 33° C.
Description: as §1

HRV-15 = test: Inhibition of virus-induced CPE in HeLa cells (MIC), HRV-15; format: cell-based; settings: Human rhinovirus sp., HRV15, 72 h, 3 day incubation at 33° C.
Description: as §1

HRV-41 = test: Inhibition of virus-induced CPE in HeLa cells (MIC), HRV-41; format: cell-based; settings: Human rhinovirus sp., HRV41, 72 h, 3 day incubation at 33° C.
Description: as §1

HRV-50 = test: Inhibition of virus-induced CPE in HeLa cells (MIC), HRV-50; format: cell-based; settings: Human rhinovirus sp., HRV50, 72 h, 3 day incubation at 33° C.
Description: as §1

[1] = tested on: human rhinovirus (HRV) serotypes, panel T; test: MIC50/MIC80 over panel T of fifteen human rhinovirus serotypes (HeLa cell CPE); format: cell-based
Description: (§2) They are useful in inhibiting virus replication in vitro and are primarily active against picornaviruses, including enteroviruses, echovirus and coxsackie virus, especially rhinoviruses. […] The test procedure used was as follows: The MIC values were determined by an automated tissue culture infectious dose 50% (TCID-50) assay. HeLa cells in monoloyers in 96-well cluster plates were infected with a dilution of virus which had been shown empirically to produce 80% to 100% cytopathic effect (CPE) in 3 days in the absence of drug. The compound to be tested was serially diluted through 10, 2-fold cycles and added to the infected cells. After a 3 day incubation at 33° C. and 2.5% carbon dioxide, the cells were fixed with a 5% solution of glutaraldehyde followed by staining with a 0.25% solution of crystal violet in water. The plates were then rinsed, dried, and the amount of stain remaining in the well (a measure of intact cells) was quantitated with an optical density reader. The MIC was determined to be the concentration of compound which protected 50% of the cells from virus-induced CPE relative to an untreated virus control.
In the above test procedures, representative compounds of formula I were tested against some the serotypes from either a panel of fifteen human rhinovirus (HRV) serotypes, (noted in the table as panel T) namely, HRV-2, -14, -1A, -1B, -6, -21, -22, -15, -25, -30, -50, -67, -89, -86 and -41 or against some of the serotypes from a panel of 10 human rhinovirus serotypes namely HRV-3, -4, -5, -9, -16, -18, -38, -66, -75 and -61, (noted in the table as panel B) and the MIC value, expressed in micrograms per milliliter ([…]), for each rhinovirus serotype was determined for each virus, example 1e is given as an example of the data. Then MIC50 and MIC80 values, which are the minimum concentrations of the compound required to inhibit 50% and 80%, respectively, of the tested serotypes were determined.
The following Table gives the test results for representative compounds of the invention. The panel of viruses used in the test appears before the MIC80 and MIC50 figure and the number of serotypes which the compound is tested against (N) is indicated after the MIC80 and MIC50 figure.

coxsackievirus B3 = test: Oral efficacy against coxsackievirus B3 in mice; format: in vivo, adult male BALB/c mice
HRV-1A = test: Inhibition of virus-induced CPE in HeLa cells (MIC), HRV-1A; format: cell-based, human rhinovirus; settings: Rhinovirus A, HRV1A, 72 h, 3 day incubation at 33° C.
Description: as §1

coxsackievirus A9 [2] = test: Oral efficacy against coxsackievirus A9 in suckling mice, administered once; format: in vivo; settings: Enterovirus B, 60 h, once 2.5 days postinfection, read-out: 50% protective dose
Description: In another study of the oral efficacy of Example 1e against a coxsackievirus A9 infection in suckling mice, in which the compound was administered once 2.5 days postinfection, the 50% protective dose was determined to be 93 mg/kg per day.

HRV-2 = test: Inhibition of virus-induced CPE in HeLa cells, automated TCID-50 assay (MIC), HRV-2; format: cell-based, human rhinovirus; settings: Rhinovirus A, HRV2, 72 h, 3 day incubation at 33° C.
Description: as §1

HRV-89 = test: Inhibition of virus-induced CPE in HeLa cells (MIC), HRV-89; format: cell-based, human rhinovirus; settings: Rhinovirus A, HRV89, 72 h, 3 day incubation at 33° C.
Description: as §1

HRV-30 = test: Inhibition of virus-induced CPE in HeLa cells (MIC), HRV-30; format: cell-based; settings: Human rhinovirus sp., HRV30, 72 h, 3 day incubation at 33° C.
Description: as §1

HRV-21 = test: Inhibition of virus-induced CPE in HeLa cells (MIC), HRV-21; format: cell-based; settings: Human rhinovirus sp., HRV21, 72 h, 3 day incubation at 33° C.
Description: as §1

[3] = tested on: 15 most commonly isolated nonpolio enteroviruses; test: MIC for the 15 most commonly isolated nonpolio enteroviruses; format: cell-based; settings: 15 nonpolio enteroviruses
Description: as §2
Using the method described above, Example 1e was tested against other viruses. […]

HRV-1B = test: Inhibition of virus-induced CPE in HeLa cells (MIC), HRV-1B; format: cell-based, human rhinovirus; settings: Rhinovirus A, HRV1B, 72 h, 3 day incubation at 33° C.
Description: as §1

coxsackievirus A9 [4] = test: Oral efficacy against coxsackievirus A9 in suckling ICR mice, daily for five days; format: in vivo, mice (suckling ICR pups)
HRV-25 = test: Inhibition of virus-induced CPE in HeLa cells (MIC), HRV-25; format: cell-based; settings: Human rhinovirus sp., HRV25, 72 h, 3 day incubation at 33° C.
Description: as §1

For Cc1cc(CCCOc2c(C)cc(-c3noc(C(F)(F)F)n3)cc2C)on1 [Example 1e, 5-{3-[2,6--Dimethyl-4-(5-trifluoromethyl-1,2,4-oxadiazol-3-yl)phenoxy]propyl}-3-methylisoxazole], the MIC (HRV-86) was 0.029 µg/mL (≈ 0.076 µM), the MIC (HRV-14) was 0.022 µg/mL (≈ 0.0577 µM) and the MIC (HRV-67) was 0.07 µg/mL (≈ 0.184 µM). The “% Alive at Day 17” value (coxsackievirus A21; 9.4 mg/kg per day) was 13%, the “% Alive at Day 17” value (coxsackievirus A21; 18.8 mg/kg per day) was 40% and the “% Alive at Day 17” value (coxsackievirus A21; 37.5 mg/kg per day) was 75%. For the same compound, the “% Alive at Day 17” value (coxsackievirus A21; 75 mg/kg per day) was 100%, the ED50 (coxsackievirus A21; Enterovirus C, A21, po, read-out: 50% protective dose (PD50)) was 26 mg/kg and the “protection of infected mice, oral” value (coxsackievirus A21; coxsackievirus A21) was “orally effective in protecting mice”. It also gave an MIC (HRV-22) of 0.011 µg/mL (≈ 0.0288 µM), an MIC (HRV-15) of 0.147 µg/mL (≈ 0.385 µM) and an MIC (HRV-41) of 0.338 µg/mL (≈ 0.886 µM). For the same compound, the MIC (HRV-50) was 0.154 µg/mL (≈ 0.404 µM), the MIC50 ([1]; Human rhinovirus sp., 72 h, minimum concentration required to inhibit 50% of the tested serotypes) was 0.0415 µg/mL (≈ 0.109 µM) and the MIC80 ([1]; minimum concentration required to inhibit 80% of the tested serotypes) was 0.119 µg/mL (≈ 0.312 µM). The “% Alive at Day 17” value (coxsackievirus B3; 2 mg/kg per day, oral) was 8%, the “% Alive at Day 17” value (coxsackievirus B3; 20 mg/kg per day, oral) was 67% and the “% Alive at Day 17” value (coxsackievirus B3; 200 mg/kg per day, oral) was 92%. The ED50 (coxsackievirus B3; Enterovirus B, B3, po, coxsackievirus B3, adult male mice, oral, Day 1 to Day 5, read-out: 50% protective dose (PD50)) was 12 mg/kg, the “protection of infected mice, oral” value (coxsackievirus B3; coxsackievirus B3) was “orally effective in protecting mice” and the “efficacy in severe disseminated enterovirus infection model” value (coxsackievirus B3; coxsackievirus B3 infection in mice) was “has shown efficacy in this stringent model”. The MIC (HRV-1A) was 0.119 µg/mL (≈ 0.312 µM), the ED50 (coxsackievirus A9 [2]) was 93 mg/kg and the MIC (HRV-2) was 0.027 µg/mL (≈ 0.0708 µM). For the same compound, the MIC (HRV-89) was 0.015 µg/mL (≈ 0.0393 µM), the MIC (HRV-30) was 0.047 µg/mL (≈ 0.123 µM) and the MIC (HRV-21) was 0.015 µg/mL (≈ 0.0393 µM). The “overall MIC80” value [3] was 0.05 µM, the MIC (HRV-1B) was 0.054 µg/mL (≈ 0.142 µM) and the “% Nonparalyzed at Day 13” value (coxsackievirus A9 [4]; 0.2 mg/kg per day, oral) was 7%. The “% Nonparalyzed at Day 13” value (coxsackievirus A9 [4]; 2.0 mg/kg per day, oral) was 10%, the “% Nonparalyzed at Day 13” value (coxsackievirus A9 [4]; 20 mg/kg per day, oral) was 10% and the “% Nonparalyzed at Day 13” value (coxsackievirus A9 [4]; 200 mg/kg per day, oral) was 87%. For the same compound, the ED50 (coxsackievirus A9 [4]; Enterovirus B, A9, po, coxsackievirus A9, suckling mice, oral, daily for five days beginning 2.5 days postinfection, read-out: 50% protective dose (PD50)) was 88 mg/kg, the “protection of infected mice, oral” value (coxsackievirus A9 [4]; coxsackievirus A9) was “orally effective in protecting mice” and the MIC (HRV-25) was 0.036 µg/mL (≈ 0.0944 µM).
